Data on 1 compound can be found in patent US20250161263A1, “USE OF A COMPOUND, PHARMACEUTICAL FORMULATION, METHOD OF TREATMENT FOR ASTHMA AND/OR COPD, AND COMPOUND” (FUNDAÇÃO OSWALDO CRUZ, priority 2022, published 2025).

Entries after “also recorded” stand apart in the source; their conditions may differ.

Common to all, as to type: in vivo, mice (BALB/c)
For assay [1], the system named is IL-13. As to the kind of experiment: IL-13 in bronchoalveolar lavage by ELISA, airway hypersensitivity model. The procedure: (§1) The ovalbumin-induced airway hypersensitivity model (BOLANDI et al., 2021), used as the basis for the present findings, induces pathophysiological and structural changes which characterize respiratory diseases such as asthma and chronic obstructive pulmonary disease (COPD).
(§2) The mice were divided into groups of six animals and immunized with a subcutaneous injection of 10 μg of ovalbumin (Sigma, St. Louis, MO) diluted in 2 mg/ml alum (Alunmlmject; Pierce, Rockford, IL), followed by of a booster injection 14 days later. From day 28 onwards, the mice were placed in an acrylic box and subjected to inhalation exposure to ovalbumin (1%) for 15 minutes per day, for five consecutive days. The ovalbumin solution was nebulized using an ultrasonic inhaler (RespiraMax, Brazil). The protocol used to induce airway hypersensitivity was performed as previously described (POSSA, 2013). The naive group was challenged with saline only. To carry out the treatments, two hours before each challenge via inhalation, the mice were treated with braylin ([…] and 12.5 mg/kg, via inhalation), dexamethasone (30 mg/kg via intraperitoneal) or vehicle (10% propylene glycol in saline, inhaled).
(§3) The animals were euthanized with a lethal dose of ketamine and xylazine (300 mg/Kg and 30 mg/Kg, respectively via i.p.) 24 hours after the last challenge to collect bronchoalveolar lavage (BAL). Intratracheal instillation of 1 ml of ice-cold PBS was performed, followed by BAL collection, and this procedure was repeated. The first wash was centrifuged and the supernatant stored at −70° C. for subsequent quantification of cytokines by ELISA. The second wash was centrifuged, the supernatant was discarded and the pellets were resuspended in 1 ml of saline to count total leukocytes using a Neubauer chamber. […]
(§4) The bronchoalveolar lavage supernatant stored at −70° C. was thawed and used to quantify the cytokines IL-4, IL-5 and IL-13 by the ELISA method, using specific kits (R&D System, Minnesota, MN, USA) for mice, following the manufacturer's instructions (VASCONCELOS, 2009).
On the technique in general: In an ELISA, binding on a coated surface is turned into a signal by an enzyme label.

The subject of assay [2] is eosinophils, neutrophils and mononuclear cells in bronchoalveolar lavage. As to the kind of experiment: Differential count of eosinophils, neutrophils and mononuclear cells in bronchoalveolar lavage, airway hypersensitivity model. The note with it: 50 mg/Kg by inhalation. The protocol: as §1, §2
(§5) The animals were euthanized with a lethal dose of ketamine and xylazine (300 mg/Kg and 30 mg/Kg, respectively via i.p.) 24 hours after the last challenge to collect bronchoalveolar lavage (BAL). Intratracheal instillation of 1 ml of ice-cold PBS was performed, followed by BAL collection, and this procedure was repeated. The first wash was centrifuged and the supernatant stored at −70° C. for subsequent quantification of cytokines by ELISA. The second wash was centrifuged, the supernatant was discarded and the pellets were resuspended in 1 ml of saline to count total leukocytes using a Neubauer chamber. To carry out the differential cell count, 10,000 cells were collected from the previous resuspension, centrifuged in Cytospin® and stained with hematoxylin and eosin (VASCONCELOS, 2009).

In assay [3] the test system is IL-4. The experiment in a line: IL-4 in bronchoalveolar lavage by ELISA, airway hypersensitivity model. The conditions noted are these: p<0.05. The protocol:
as §1
(§6) The mice were divided into groups of six animals and immunized with a subcutaneous injection of 10 μg of ovalbumin (Sigma, St. Louis, MO) diluted in 2 mg/ml alum (Alunmlmject; Pierce, Rockford, IL), followed by of a booster injection 14 days later. From day 28 onwards, the mice were placed in an acrylic box and subjected to inhalation exposure to ovalbumin (1%) for 15 minutes per day, for five consecutive days. The ovalbumin solution was nebulized using an ultrasonic inhaler (RespiraMax, Brazil). […]
The animals were euthanized with a lethal dose of ketamine and xylazine (300 mg/Kg and 30 mg/Kg, respectively via i.p.) 24 hours after the last challenge to collect bronchoalveolar lavage (BAL). […] The first wash was centrifuged and the supernatant stored at −70° C. for subsequent quantification of cytokines by ELISA. […]
as §4

For assay [4], the system named is PAS-labeled mucus-producing goblet cells of the bronchiolar epithelium. As to the kind of experiment: Goblet cell metaplasia / mucus production, PAS-stained lung sections, airway hypersensitivity model. The note with it: braylin treatment (FIG. 5: 50 mg/kg/in), p<0.05. The protocol:
as §1, §6
After collecting the bronchoalveolar lavage, lung perfusion was performed intratracheally with 1 ml formalin (4%) and, subsequently, the right lobe of the lungs of each animal was removed and fixed in the same solution for histological and morphometric analysis. The sections were stained with hematoxylin and eosin to quantify inflammatory cells by optical microscopy according to the number of cores present in the fields with the largest population of cells. To quantify mucus production, staining was performed with periodic acid-Schiff (PAS) and the marked areas were quantified. […]

For assay [5], the system named is IL-5. As to the kind of experiment: IL-5 in bronchoalveolar lavage by ELISA, airway hypersensitivity model. The protocol: as §1, §2, §3, §4
Assay [6] concerns inflammatory cells in lung tissue. The experiment in a line: Pulmonary inflammatory infiltrate, HE-stained lung sections, airway hypersensitivity model. The conditions noted are these: 50 mg/kg inhaled, vs vehicle, p<0.05.
Experimental: The mice were divided into groups of six animals and immunized with a subcutaneous injection of 10 μg of ovalbumin (Sigma, St. Louis, MO) diluted in 2 mg/ml alum (Alunmlmject; Pierce, Rockford, IL), followed by of a booster injection 14 days later. From day 28 onwards, the mice were placed in an acrylic box and subjected to inhalation exposure to ovalbumin (1%) for 15 minutes per day, for five consecutive days. The ovalbumin solution was nebulized using an ultrasonic inhaler (RespiraMax, Brazil). […] The naive group was challenged with saline only.
After collecting the bronchoalveolar lavage, lung perfusion was performed intratracheally with 1 ml formalin (4%) and, subsequently, the right lobe of the lungs of each animal was removed and fixed in the same solution for histological and morphometric analysis. The sections were stained with hematoxylin and eosin to quantify inflammatory cells by optical microscopy according to the number of cores present in the fields with the largest population of cells. […] 10 fields (400×) per animal were analyzed for a total of 5 animals, and the data were used to calculate the average number of cells per mm^2, or the area stained with PAS. The program used to assist in cell counting and area determination was Image-Pro PLUS, version 4.5 (Media Cybernetics, Silver Spring, USA).
Assay [7] has as its system total inflammatory cells in bronchoalveolar lavage (airway hypersensitivity model in mice). As to the kind of experiment: Total inflammatory cell count in bronchoalveolar lavage, ovalbumin-induced airway hypersensitivity model. The note with it: vs vehicle. The procedure:
as §1
as §6, with “Brazil). The protocol used to induce airway hypersensitivity was performed as previously described (POSSA, 2013). The naive group was challenged with saline only.” for “Brazil).”
as §5

In the case of `COc1cc2ccc(=O)oc2c2c1OC(C)(C)C=C2` [braylin], the “level of IL-13 in BAL” value in assay [1] (12.5 mg/kg inhaled) was “significant reduction”; in assay [1] (25 mg/kg inhaled, p<0.05), “reduced”; in assay [1] (50 mg/kg inhaled, p<0.05) it was “reduced”. Moreover, in assay [2] (compared with naive group), the “quantity of mononuclear cells in BAL” value is on record as “approached the values found in mice in the naive group”. For the same compound, in assay [2] (vs vehicle, p<0.05), the “amount of eosinophils present in BAL” value is on record as “reduced”. Further, the “amount of neutrophils present in BAL” value in assay [2] (vs vehicle, p<0.05) is on record as “reduced”. The “level of IL-4 in BAL” value in assay [3] (25 mg/kg inhaled) and in assay [3] (50 mg/kg inhaled) was “reduced” in each case. In assay [4], the “Goblet cell labeling (PAS) in the bronchiolar epithelium, mucus production” value is “reduced”. The “level of IL-5 in BAL” value in assay [5] (12.5 mg/kg inhaled) was “significant reduction”; in assay [5] (25 mg/kg inhaled, p<0.05), “reduced”; in assay [5] (50 mg/kg inhaled, p<0.05), “reduced”. For the same compound, the “lung inflammation, presence of inflammatory cells in HE-stained lung” value in assay [6] is reported as “reduction in lung inflammation”. The “number of inflammatory cells in the BAL” value in assay [7] (12.5 mg/kg by inhalation) was “no effect”; in assay [7] (25 mg/kg by inhalation, p<0.05), “reduced”; in assay [7] (50 mg/kg by inhalation, 5 consecutive days, p<0.05), “significantly lower; also recorded: reduced”; in assay [7] (50 mg/kg intraperitoneally, 5 consecutive days, p<0.05), “significantly lower”; in assay [7] (100 mg/kg by inhalation, p<0.05), “reduced”.
